Measurements taken from patent publication US6534524B1, “Indazole compounds and pharmaceutical compositions for inhibiting protein kinases, and methods for their use” (Agouron Pharmaceuticals, Inc., priority 1999, dated 2003).
pKi: −log10 of the molar value. Where two headings read alike, the source gives them in different places.

Columns and labels:
CDK1 = CDK1 (Homo sapiens, UniProt P06493); experiment: CDK1 inhibition; format: biochemical; conditions: Table 3
[1] = molecular target: T1, phosphorylase kinase (truncated catalytic gamma subunit) (Oryctolagus cuniculus, UniProt P00518); experiment: Phosphorylase kinase assay; format: biochemical; conditions: 10 μM of compound
T1 construct: (gamma subunit) of phosphorylase kinase (amino acids 1-298); made in house
Method: Phosphorylase Kinase Assay. In the assay, the purified catalytic subunit is used to phosphorylate phosphorylase b using radiolabled ATP. Briefly, 1.5 mg/ml of phosphorylase b is incubated with 10 nM phosphorylase kinase in 10 Mm MgCl2, 50 mM Hepes pH 7.4, at 37° C. […] The reaction was terminated and proteins were precipitated by the addition of TCA to 10% final concentration. […] The filter plate was then extensively washed with 20% TCA, and dried. Scintilation fluid was then added to the plate and incorporated radiolabel was counted on a Wallac microbeta counter.

[2] = molecular target: unphosphorylated VEGF-R2Δ50 (FLVK) (Homo sapiens, UniProt P35968, DEL940-989/E990V); experiment: VEGF-R2 coupled spectrophotometric assay, unphosphorylated VEGF-R2Δ50 (FLVK)
human CHK1 (FL-CHK1) = molecular target: T2, human CHK1 (FL-CHK1) (Homo sapiens, UniProt O14757); experiment: CHK1 assay (coupled spectrophotometric, Syntide-2); format: biochemical; conditions: read-out: CHK-1 Ki
T2 construct: C-terminally His-tagged full-length human CHK1 (FL-CHK1); made in house; host or cells: baculovirus/insect cell system
T2 sequence (O14757 1-476): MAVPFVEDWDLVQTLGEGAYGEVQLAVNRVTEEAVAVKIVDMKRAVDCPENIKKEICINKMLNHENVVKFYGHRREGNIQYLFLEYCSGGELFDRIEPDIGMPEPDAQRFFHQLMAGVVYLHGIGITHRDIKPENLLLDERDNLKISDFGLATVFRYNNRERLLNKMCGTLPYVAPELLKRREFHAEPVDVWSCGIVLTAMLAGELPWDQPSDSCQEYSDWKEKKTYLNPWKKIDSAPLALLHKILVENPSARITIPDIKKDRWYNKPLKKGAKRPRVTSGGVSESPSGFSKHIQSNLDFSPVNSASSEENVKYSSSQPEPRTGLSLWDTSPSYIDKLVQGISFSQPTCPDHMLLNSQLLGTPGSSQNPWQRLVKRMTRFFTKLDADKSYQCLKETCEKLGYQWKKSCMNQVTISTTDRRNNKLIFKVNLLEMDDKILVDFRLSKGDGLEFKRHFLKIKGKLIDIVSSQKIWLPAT
In short: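 Full-length C-terminally His-tagged human CHK1 expressed in baculovirus/insect cells, used at 10 nM with Syntide-2 substrate. ADP formation coupled via PK/LDH to NADH oxidation, followed as absorbance decrease at 340 nm. Ki from initial rates at varying compound concentrations.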

[3] = Human liver microsome (HLM) assay; format: in vitro ADME; conditions: human liver microsomes, 5 μM test compound
In short: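 LC-MS quantified test compound remaining after 0 and 2 h incubation with human liver microsomes. Triplicate samples, clarified by 10 min centrifugation at 14000 g.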

CDK2/Cyclin A = CDK2/Cyclin A (Homo sapiens, UniProt P24941); experiment: CDK2/Cyclin A assay ([32P]ATP, Rb fragment); format: biochemical; conditions: Table 1
CDK4/Cyclin D3 complex = CDK4/Cyclin D3 complex (Homo sapiens, UniProt P11802); experiment: CDK4/Cyclin D assay ([32P]ATP, Rb fragment)
[4] = molecular target: phosphorylated VEGF-R2Δ50 (FLVK-P) (Homo sapiens, UniProt P35968, DEL940-989/E990V); experiment: VEGF-R2 coupled spectrophotometric assay, phosphorylated VEGF-R2Δ50 (FLVK-P)
LCK tyrosine kinase = molecular target: T3, LCK tyrosine kinase (Homo sapiens, UniProt P06239, C224D/P223M); experiment: LCK spectrophotometric assay; format: biochemical; conditions: Table 1; read-out: Lck-P Ki
T3 construct: starting from amino acid residue 223 to the end of the protein at residue 509; made in house; host or cells: insect cells

Mouse PK assay = format: in vivo; conditions: female, B6, plasma, oral
Method: Mouse PK Assay The pharmacolinetics (e.g., absorption and elimination) of drugs in mice were analyzed using the following experiment. […] This was administered orally (p.o.) and intraperitoneally (i.p.) at variable doses to two distinct groups (n=4) of B6 female mice. Blood samples were collected via an orbital bleed at time points: 0 hour (pre-dose), 0.5 h, 1.0 h, 2.0 h, and 4.0 h, and 7.0 h post dose. Plasma was obtained from each sample by centrifugation at 2500 rpm for 5 min. Test compound was extracted from the plasma by an organic protein precipitation method. For each time bleed 50 μL of plasma was combined with 1.0 mL of acetonitrile, vortexed for 2 min. and then spun at 4000 rpm for 15 min. to precipitate the protein and extract out the test compound. Next, the acetonitrile supernatant (the extract containing test compound) was poured into new test tubes and evaporated on a hot plate (25° C.) under a steam of N2 gas. […] Test-compound plasma concentrations (μg/mL) were determined by a comparison to standard curve (peak area vs. conc. μg/mL) using known concentrations of test compound extracted from plasma samples in the manner described above. […] The quantitated test samples were plotted for visual display using Kalidagraph software and their pharmacokinetic parameters were determined using WIN NONLIN software.

[5] = Determination of inhibitor concentration in mouse plasma after intraperitoneal and oral dosing; format: in vivo; conditions: IP, 50 mg/kg, vehicle PEG400:H2O pH 2.3 30:70
In short: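 Plasma levels quantified by HPLC or LC-MS using a standard curve prepared in mouse plasma, following ethyl acetate extraction with internal standard and sodium hydroxide. Sampling at 0.5, 1, 4 h (ocular bleed) and 7 h (cardiac puncture) after oral or intraperitoneal dosing.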

human FGF-R1 = human FGF-R1 (Homo sapiens, UniProt P11362, C488A/C584S/L457V); experiment: FGF-R spectrophotometric assay
[6] = Isomerization under assay conditions; format: physicochemical; conditions: Z-isomer
Method: Example 33(h) was prepared in the same reaction as Example 33(d). […] Found: C, (66.36), H, (4.08), N, (11.49), S, (6.55).

Sequence of unphosphorylated VEGF-R2Δ50 (FLVK) (P35968 with tags, fused parts or gaps DEL940-989/E990V limits assumed): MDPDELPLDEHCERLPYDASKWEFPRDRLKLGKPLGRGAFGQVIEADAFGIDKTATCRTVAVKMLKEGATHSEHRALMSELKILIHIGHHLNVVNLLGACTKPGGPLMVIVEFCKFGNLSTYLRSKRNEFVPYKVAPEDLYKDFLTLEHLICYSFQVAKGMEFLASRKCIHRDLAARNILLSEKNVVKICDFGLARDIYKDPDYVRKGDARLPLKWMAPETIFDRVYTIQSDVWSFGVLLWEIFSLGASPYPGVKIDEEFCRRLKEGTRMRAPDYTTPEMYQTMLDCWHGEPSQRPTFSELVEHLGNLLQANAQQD
Sequence of human FGF-R1 (P11362 456-766 L457V/C488A/C584S): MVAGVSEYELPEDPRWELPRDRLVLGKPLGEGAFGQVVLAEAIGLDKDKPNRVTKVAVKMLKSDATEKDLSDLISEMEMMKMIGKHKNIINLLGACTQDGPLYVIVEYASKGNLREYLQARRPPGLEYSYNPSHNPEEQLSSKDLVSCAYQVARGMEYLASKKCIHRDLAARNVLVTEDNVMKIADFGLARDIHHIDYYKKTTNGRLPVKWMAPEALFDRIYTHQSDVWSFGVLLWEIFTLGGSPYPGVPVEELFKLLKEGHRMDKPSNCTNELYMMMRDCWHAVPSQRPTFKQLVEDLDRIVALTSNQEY
Sequence of phosphorylated VEGF-R2Δ50 (FLVK-P) (P35968 with tags, fused parts or gaps DEL940-989/E990V limits assumed): as the sequence (P35968 with tags, fused parts or gaps DEL940-989/E990V limits assumed) above
Sequence of CDK4/Cyclin D3 complex (P11802 whole entry, the tested form may be a part): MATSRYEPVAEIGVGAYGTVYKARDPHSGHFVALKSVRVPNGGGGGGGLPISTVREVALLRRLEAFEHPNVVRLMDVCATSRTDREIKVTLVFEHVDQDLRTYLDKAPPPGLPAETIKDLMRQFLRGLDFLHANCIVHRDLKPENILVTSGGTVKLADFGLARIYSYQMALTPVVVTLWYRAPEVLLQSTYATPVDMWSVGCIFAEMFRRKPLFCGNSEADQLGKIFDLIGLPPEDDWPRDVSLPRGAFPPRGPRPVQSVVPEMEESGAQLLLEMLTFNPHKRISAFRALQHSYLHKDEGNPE
Sequence of CDK4/Cyclin D3 complex (P30281 whole entry partner, the tested form may be a part): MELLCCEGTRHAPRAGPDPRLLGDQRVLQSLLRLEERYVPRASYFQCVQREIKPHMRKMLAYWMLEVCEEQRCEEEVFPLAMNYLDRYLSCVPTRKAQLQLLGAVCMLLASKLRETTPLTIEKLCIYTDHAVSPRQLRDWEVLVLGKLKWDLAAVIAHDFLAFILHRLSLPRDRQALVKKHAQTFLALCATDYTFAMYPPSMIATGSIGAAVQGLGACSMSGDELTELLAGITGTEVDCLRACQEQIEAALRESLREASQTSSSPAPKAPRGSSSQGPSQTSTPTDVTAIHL
Sequence of CDK1 (P06493 whole entry, species assumed, the tested form may be a part): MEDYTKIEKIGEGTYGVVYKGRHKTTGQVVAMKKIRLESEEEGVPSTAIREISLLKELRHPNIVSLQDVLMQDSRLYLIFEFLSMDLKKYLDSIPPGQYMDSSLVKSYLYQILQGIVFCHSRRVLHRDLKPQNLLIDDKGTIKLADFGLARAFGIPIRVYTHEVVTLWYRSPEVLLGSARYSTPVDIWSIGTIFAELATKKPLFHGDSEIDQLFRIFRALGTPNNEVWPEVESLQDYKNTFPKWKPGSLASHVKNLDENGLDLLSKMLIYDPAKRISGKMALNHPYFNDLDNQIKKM
Sequence of CDK1 (P14635 whole entry partner, species assumed, the tested form may be a part): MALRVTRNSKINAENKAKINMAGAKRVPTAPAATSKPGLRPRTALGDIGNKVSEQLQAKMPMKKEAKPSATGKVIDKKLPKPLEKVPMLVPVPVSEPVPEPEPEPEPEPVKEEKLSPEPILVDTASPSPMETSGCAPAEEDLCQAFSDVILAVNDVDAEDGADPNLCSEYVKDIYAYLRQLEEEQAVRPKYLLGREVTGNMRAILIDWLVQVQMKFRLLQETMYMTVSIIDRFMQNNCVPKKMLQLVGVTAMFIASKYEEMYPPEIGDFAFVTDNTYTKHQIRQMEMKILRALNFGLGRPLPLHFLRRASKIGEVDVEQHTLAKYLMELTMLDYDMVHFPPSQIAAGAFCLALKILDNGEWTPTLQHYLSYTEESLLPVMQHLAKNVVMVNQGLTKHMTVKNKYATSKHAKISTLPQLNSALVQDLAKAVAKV
T3 sequence (P06239 223-509 P223M/C224D): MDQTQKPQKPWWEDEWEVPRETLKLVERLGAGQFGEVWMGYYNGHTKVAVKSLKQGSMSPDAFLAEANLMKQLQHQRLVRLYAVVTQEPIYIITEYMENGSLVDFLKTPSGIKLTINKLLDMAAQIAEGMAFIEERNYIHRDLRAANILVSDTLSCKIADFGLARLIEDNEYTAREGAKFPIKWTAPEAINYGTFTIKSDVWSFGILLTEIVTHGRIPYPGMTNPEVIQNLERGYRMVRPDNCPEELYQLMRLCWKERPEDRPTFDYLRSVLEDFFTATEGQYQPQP
T1 sequence (P00518 2-299 limits assumed): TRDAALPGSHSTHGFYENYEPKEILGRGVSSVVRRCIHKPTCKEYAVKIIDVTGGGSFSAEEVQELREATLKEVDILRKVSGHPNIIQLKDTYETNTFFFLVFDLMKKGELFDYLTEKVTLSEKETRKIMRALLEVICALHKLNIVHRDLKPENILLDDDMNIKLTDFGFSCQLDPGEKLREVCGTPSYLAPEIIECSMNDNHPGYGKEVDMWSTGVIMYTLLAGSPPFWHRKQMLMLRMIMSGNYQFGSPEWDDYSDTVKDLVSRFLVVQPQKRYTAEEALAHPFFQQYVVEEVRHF

## C(=C\c1n[nH]c2cc(-c3ccnc4[nH]ccc34)ccc12)/c1ccccc1 [Example 52(b), 6-(7-Azaindol-4-yl)-3-E-styryl-1H-indazole]
CDK1
  pKi: 7.39
[1]
  inhibition at 10 µM: 92%
[2]; read-out: FLVK % inhibition
  inhibition at 1 µM: 94%
Human CHK1 (FL-CHK1); Table 3
  pKi: 7.10

## COc1cc(-c2ccc3c(/C=C/c4ccc(OC)c(OC)c4)n[nH]c3c2)ccc1O [Example 1(a), 3-[E-2-(3,4-Dimethoxy-phenyl)vinyl]-6-(3-methoxy-4-hydroxy-phenyl)-1H-indazole]
[2]; FLVK Ki, Table 1
  pKi: 9.52
[3]
  % remain (HLM, 2 h): 98%
CDK2/Cyclin A
  pKi: 7.72
CDK4/Cyclin D3 complex
  pKi: 7.89
[4]
  pKi: 8.70
LCK tyrosine kinase
  pKi: 7.06
Mouse PK assay
  AUC: 330 ng·h/mL
Human CHK1 (FL-CHK1); Table 1
  pKi: 8.28
[5]
  AUClast: 691 ng·h/mL
  Cmax: 283 ng/mL
  plasma half-life (T1/2): 2.4 h
Human FGF-R1
  pKi: 7.57

## O=C(Nc1cccc(Cl)c1)c1ccccc1Sc1ccc2c(/C=C\c3ccccn3)n[nH]c2c1 [Example 33(h), 6-[2-(3-Chlorophenylcarbamoyl)phenylsulfanyl]-3-Z-[2-(pyridin-2-yl)ethenyl]-1H-indazole]
[6]
  Isomerization under assay conditions: found to isomerize to Example 33(d) under assay conditions
